Test results: article PMC9811213, “Glutamine deamidation does not increase the immunogenicity of C-peptide in people with type 1 diabetes” (Journal of Translational Autoimmunity, 2022)

Tests used:
[1] = test system: Jurkat line (ACD4_38) expressing a C-peptide specific TCR; assay: IL-2 secretion (ELISA) by TCR-transduced Jurkat line, peptide titration; assay type: cell-based, human; conditions: clone ACD4_38, two independent experiments
Protocol: (§1) TCR-transduced T cells were cultured, in triplicate, in cRPMI/5% FBS at 2 × 10^4/well with an equal number of EBV-transformed B cells (see Supplementary Table 3) and different peptides (Purar Chemicals). See Supplementary Table 6 for a full list of peptides used in this study. The positive control was PMA (10 ng/mL) and ionomycin (500 ng/mL) in culture media. Negative controls had all cells, but no peptide. After overnight culture supernatant was collected for IL-2 ELISA.
(§2) ELISAs were performed using the ELISA MAX™ Deluxe set Human IL-2 (BioLegend) as per the manufacturer's instructions. Briefly, 96-well ELISA plates (Greiner Bio-One) were coated with 100μL/well of purified anti-human IL-2 antibody diluted 1:200. […] The reaction was stopped by the addition of 2 M H2SO4 solution (BioLegend) and optical density (OD) measured using a FLUOstar Omega microplate reader (BMG LabTech). The amount of IL-2 secreted was determined using a linear regression of all OD values (minus the background) of the standard curve. […]
To determine if C-peptide specific TCRs were more sensitive to Q to E variants of C-peptide we tested graded concentrations of wild type C-peptide and five deamidated variants. […] To compare the relative potency of the Q to E substituted peptides the responses were calculated as fold change relative to full-length, WT C-peptide (Fig. 2D). […]

[2] = test system: 18 Jurkat T-cell lines expressing C-peptide specific TCRs; assay: IL-2 secretion (ELISA) by panel of 18 TCR-transduced Jurkat lines, peptide titration; assay type: cell-based, human; conditions: Mann-Whitney test, Fig. 2H
Protocol: as §1
as §2, with “instructions.” for “instructions. Briefly, 96-well ELISA plates (Greiner Bio-One) were coated with 100μL/well of purified anti-human IL-2 antibody diluted 1:200.”
Fig. 2 C-peptide specific TCR responses to deamidated C-peptide variants (A) Each peptide is referred to by the position, within C-peptide of the glutamine (Q), in bold, to glutamic acid (E), in red text, substitutions. […] (C) The EC50 for each peptide was calculated the and the EC50 from two independent experiments are shown. […] Statistical significance was determined using the Mann-Whitney test (ns, not significant, […], p < 0.05, **p < 0.01, ***p < 0.001). […]

Sequence	Stimulation compared with WT C-peptide and the other single substituted peptides (EC50, IL-2) [1]	Difference in fold change in EC50 (relative to full-length C-peptide) between clones with overlapping and non-overlapping epitopes [2]
EAEDLEVGEVELGGGPGAGSLEPLALEGSLE [QallE, C-peptide with all four glutamines substituted for glutamic acid]	dramatically less stimulatory	
EAEDLQVGEVELGGGPGAGSLQPLALEGSLQ [Q9E, C-peptide variant with glutamine 9 substituted for glutamic acid]	dramatically less stimulatory	
EAEDLQVGQVELGGGPGAGSLQPLALEGSLE [Q31E, C-peptide variant with glutamine 31 substituted for glutamic acid]		no difference
